Experimental data reported in patent publication US20140329903A1, “TREATMENT OF NEURODEGENERATIVE DISEASES” (ACADIA PHARMACEUTICALS INC., priority 2011, published 2014).
Values joined by “and” are separate entries in the source; they are usually repeats but may differ in a detail not shown here. Equal entries are not always repeated. “Also recorded” adds a separate entry of the source. Where two headings read alike, the source gives them in different places.

How the values were obtained:
[1] = test system: 6-hydroxydopamine (6OHDA) lesions of the substantia nigra pars compacta (SNc); assay: 6OHDA lesion of the SNc, bexarotene i.c.v. after lesion; type: in vivo, Sprague-Dawley rats; conditions: for Effective in rat PD model?: i.c.v. 0.006 mg/kg/day (text: 0.00625), 6OHDA lesioning of the substantia nigra
Description: Following the 28 days of treatment, animals were assessed in 3 tests of coordinated motor function (spontaneous locomotion, rotorod and challenging beam) and then tissue was collected to assess tyrosine hydroxylase immunofluorescence in the substantia nigra (SNc) and DAT and VMAT2 in the striatum (STR). […] The subjects for these experiments were male Sprague-Dawley rats purchased from Charles Rivers Laboratories (Hollister, Calif.) weighing 200-225 g upon arrival. Rats were housed in pairs in polypropylene cages within a temperature controlled vivarium maintained on a 12 hr light:dark cycle (lights on 7 am). For the duration of the experiments, animals received free access to food and water. All procedures were conducted in accordance with the NIH Guidelines for the Care and Use of Laboratory Animals and were approved by the Institutional Animal Care and Use Committee (IACUC) at […] Pharmaceuticals. Animals were acclimated to vivarium conditions and handling for a minimum of one week prior to surgery. […] After 6OHDA infusions, an Alzet osmotic pump (Durect Corporation, Cupertino, Calif.) attached to an intracranial guide cannula was implanted subcutaneously between the shoulder blades of each animal. The guide was placed intracerebroventricularly (i.c.v., A/P -0.8 mm, M/L -1.4 mm, D/V -4.5 mm relative to bregma) and was attached to the skull with jeweler's screws and dental acrylic and the incision was closed with staples. […] They were then incubated in 0.9% physiological saline at 37° C. until surgically implanted. The pumps infused at a rate of 0.25 μL/hr for 28 days after implantation. […] After completion of the experiment, a subset of the osmotic pumps was removed. The pumps were weighed and aspirated in order to verify compound delivery. […] (Columbus, Ohio). Animals were placed into the chamber for 15 min and their distance traveled (cm) was recorded. Rotorod testing was conducted on a rotating cylinder (70 mm diameter) with knurled tread to aid in gripping. Animals were placed on the cylinder and it was set to rotate at 1 rpm for 15 sec. If animals fell or jumped from the cylinder within 30 sec., they were replaced and the acclimation period restarted. Once animals successfully remained on the cylinder for the acclimation period, the speed of rotation was increased 1 rpm every 15 sec to a maximum of 10 rpm. The time in seconds that animals remained on the cylinder after the acclimation period and the maximum rpm achieved were recorded. […] The challenging beam test was conducted on a 102 cm long bi-level beam made from ABS plastic. The top, narrower beam gradually tapered from 3.5 cm to 0.7 cm, while the bottom, wider beam gradually tapered from 5 cm to 1.8 cm along the length of the beam. The beam was elevated 23 cm above the table. Animals were placed in groups of 4 into a holding tub and received five training trials. On the first training trial animals were placed at the end of the beam and were required to jump into a holding tub. On successive trials, animals were placed 25, 50, 75 and 100 cm from the end of the beam and were required to traverse the beam and jump into the holding tub at the end. Following training, a single test trial was conducted where each animal was placed at the beginning of the beam and the start latency (time required to move all four feet from their starting locations) and run time (time required to traverse the beam after starting) were recorded. […] Similarly, fixed brains were sectioned (50 μm) through the striatum and labeled for the dopamine transporter. […] After immuno labeling sections were mounted and coverslipped using fluorescent antifade mounting medium ([…], Dako USA, Carpinteria, Calif.). Single optical plane images were obtained using an Olympus BX51 Fluorescent microscope (Olympus America Inc., Center Valley, Pa.) equipped with a digital camera (Retina 2000R, Qimaging, Surrey, BC). Images were acquired using a 4× air objective ([…]. 0.13) with 2× digital magnification. […]

[2] = test system: 6-hydroxydopamine (6OHDA) lesions of the substantia nigra pars compacta (SNc); assay: 6OHDA lesion of the SNc, bexarotene once daily orally after lesion; type: in vivo, rats
Description: . The endpoints assessed were: • Neuroprotection measured by tyrosine hydroxylase (TH) staining in the substantia nigra (SNc). • Behavioral assessments including rotorod, challenging beam, and spontaneous locomotion
. Following the 28 days of treatment, animals were assessed in 3 tests of coordinated motor function (spontaneous locomotion, rotorod and challenging beam) and then tissue was collected to assess tyrosine hydroxylase immunofluorescence in the substantia nigra. […].
The subjects and surgical procedures to produce lesions were as described above for i.c.v. dosing.
Spontaneous Locomotion, rotorod, and challenging beam tests were conducted as described above for i.c.v. dosing.
Novel object recognition (NOR) was conducted in a novel environment in two phases: sample and test. Subjects were placed into the NOR chamber, where two identical objects were placed. Each rat was allowed to explore for 3 min., and the time spent exploring at each position recorded. After 3 min., each rat was removed from the arena and placed back into its cage. The test phase was conducted 4 hours after the sample phase. During test, one familiar object (seen during sample) and one novel object was placed into the chamber, and each rat was allowed 3 min to explore. The test sessions were recorded on video and scored by an observer blind to each subject's treatment condition. For test data, % of exploration time spent at the novel object was determined and headtwitch assays.
Spontaneous Head Twitch: Subjects were place in a group of 4 animals into a clean holding tub, where they were closely observed for 8 min.
Tyrosine Hydroxylase Fluorescent Immunohistochemisty was conducted as described above for i.c.v. dosing.

[3] = Body weight gain on oral dosing; type: in vivo, rats
[4] = human, plasma, po
[5] = NDA #21055, cited from earlier work

C=C(c1ccc(C(=O)O)cc1)c1cc2c(cc1C)C(C)(C)CCC2(C)C [Bexarotene, bexarotene]
DAT and VMAT2 immunohistochemistry in the striatum ([1]; 0.006 mg/kg/day i.c.v. beginning 72 hours after 6OHDA lesion): significantly increased all measures; also recorded: improved dopamine transporter and VMAT2 expression | tyrosine hydroxylase immunofluorescence in the SNc ([1]; 0.006 mg/kg/day i.c.v. beginning 72 hours after 6OHDA lesion, vs vehicle): significantly improved cell counts, cell size and mean pixel intensity; also recorded: improved tyrosine hydroxylase expression | motor performance (challenging beam, rotorod, spontaneous locomotion) after 6OHDA ([1]; 0.006 mg/kg/day i.c.v. for 28 days beginning 72 hours after lesion): not impaired relative to Sham controls; also recorded: reversed behavioral deficits | Effective in rat PD model? [1]: effective in reversing the neuronal and behavioral deficits | Effective in rat PD model? ([1]; listed as bexarotene): Yes | Effective PD dose (rat), i.c.v. ([1]; i.c.v. continuous infusion, 6OHDA lesion model): 0.00625 mg/kg/day | improvement of TH measures in the SNc ([2]; 0.3 mg/kg/day orally for 28 days beginning 3 days after lesion): not | normalization of behavior disrupted by lesion ([2]; 0.3 mg/kg/day orally for 28 days beginning 3 days post-lesion): not | TH positive cells, mean pixel intensity, % immunopositive, colocalization of TH and Neurotrace in the SNc ([2]; 1 or 3 mg/kg/day orally for 28 days beginning 3 days after lesion, vs vehicle): significantly improved; also recorded: improved tyrosine hydroxylase expression | behavior disrupted by lesion (challenging beam, rotorod, novel object recognition, head twitches) ([2]; 1 or 3 mg/kg/day orally for 28 days beginning 3 days post-lesion): normalized behavior disrupted by lesion; also recorded: reversed behavioral deficits | Effective PD dose (rat), p.o. ([2]; once daily p.o., 6OHDA lesion model, listed as Targretin): 1 mg/kg/day | Effective in rat PD model? ([2]; p.o. 1 mg/kg/day, 6OHDA lesioning of the substantia nigra, 1 mg/kg/day): effectively reversed behavioral deficits and regenerated neurons and Yes | % BW gain ([3]; PO 3 mg/kg/day once per day): 19.8 +/− 3.4% | % BW gain ([3]; PO 10 mg/kg/day once per day): 20.4 +/− 1.6% | % BW gain ([3]; PO 30 mg/kg/day once per day): 11.2 +/− 0.8% | % BW gain ([3]; PO 100 mg/kg/day once per day): 7.0 +/− 3.6% | body weight gain ([3]; higher oral doses): decrease in body weight gain | AUC [4]: 0.7 to 1.3 µM·h | plasma AUC ([5]; p.o. 3 mg/kg/day): 4.4 µM·h | plasma AUC ([5]; p.o. 10 mg/kg/day): 14.1 µM·h | plasma AUC ([5]; p.o. 30 mg/kg/day, 30 mg/kg/day): 24.3 μM * hr and 24 μM*hr μM * hr and 24 μM * hr | plasma AUC ([5]; p.o. 100 mg/kg/day, 100 mg/kg/day): 42.1 μM * hr and 42 μM*hr μM * hr and 42 μM * hr
